Columns and labels:
Type in all cases: in vivo
[1] = tested on: Amaranthus retroflexus (AMARE); assay: Post-emergence herbicidal activity, Amaranthus retroflexus; set-up: key: 5=total damage to plant; 0=no damage to plant; details: 1000 g/ha, evaluated after 13 days, Test 2b
Experimental: (§1) Seeds of a variety of test species were sown in standard soil in pots: Triticum aestivium (TRZAW), Avena fatua (AVEFA), Alopecurus myosuroides (ALOMY), Echinochloa crus-galli (ECHCG), Lolium perenne (LOLPE), Zea Mays (ZEAMX), Abutilon theophrasti (ABUTH), Amaranthus retroflexus (AMARE) and Setaria faberi (SETFA). After 8 days cultivation (post-emergence) under controlled conditions in a glasshouse (at 24/16° C., day/night; 14 hours light; 65% humidity), the plants were sprayed with an aqueous spray solution derived from the formulation of the technical active ingredient in acetone/water (50:50) solution containing 0.5% Tween 20 (polyoxyethelyene sorbitan monolaurate, CAS RN 9005-64-5). The test plants were then grown in a glasshouse under controlled conditions (at 24/16° C., day/night; 14 hours light; 65% humidity) and watered twice daily. After 13 days, the test was evaluated (5=total damage to plant; 0=no damage to plant).

Setaria faberi (SETFA) [2] = assay: Post-emergence herbicidal activity, Setaria faberi; set-up: key: 5=total damage to plant; 0=no damage to plant; details: 1000 g/ha, evaluated after 13 days; for SETFA damage score (0-5): Test 2b
In short: (§2)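 Each value is a visual damage score from 0 (no effect) to 5 (plant killed), assessed 13 days after a foliar spray applied to 8-day-old plants. The compound was applied in acetone/water 50:50 with 0.5% Tween 20 under controlled glasshouse conditions.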

[3] = tested on: Abutilon theophrasti (ABUTH); assay: Post-emergence herbicidal activity, Abutilon theophrasti; set-up: key: 5=total damage to plant; 0=no damage to plant; details: 1000 g/ha, evaluated after 13 days, Test 2b
Experimental: as §1

[4] = tested on: Amaranthus retroflexus (AMARE); assay: Pre-emergence herbicidal activity, Amaranthus retroflexus; set-up: key: 5=total damage to plant; 0=no damage to plant; details: 1000 g/ha, evaluated after 13 days, Test 1b
Experimental: (§3) Seeds of a variety of test species were sown in standard soil in pots: Triticum aestivium (TRZAW), Avena fatua (AVEFA), Alopecurus myosuroides (ALOMY), Echinochloa crus-galli (ECHCG), Lolium perenne (LOLPE), Zea Mays (ZEAMX), Abutilon theophrasti (ABUTH), Amaranthus retroflexus (AMARE) and Setaria faberi (SETFA). After cultivation for one day (pre-emergence) under controlled conditions in a glasshouse (at 24/16° C., day/night; 14 hours light; 65% humidity), the plants were sprayed with an aqueous spray solution derived from the formulation of the technical active ingredient in acetone/water (50:50) solution containing 0.5% Tween 20 (polyoxyethelyene sorbitan monolaurate, CAS RN 9005-64-5). The test plants were then grown in a glasshouse under controlled conditions (at 24/16°, day/night; 14 hours light; 65% humidity) and watered twice daily. After 13 days, the test was evaluated (5=total damage to plant; 0=no damage to plant).

[5] = tested on: Echinochloa crus-galli (ECHCG); assay: Pre-emergence herbicidal activity, Echinochloa crus-galli; set-up: key: 5=total damage to plant; 0=no damage to plant; details: 1000 g/ha, evaluated after 13 days; for ECHCG damage score (0-5): Test 1b
In short: (§4)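 First, seeds were sown in standard soil and held one day under glasshouse conditions. Next, soil was sprayed with the active ingredient formulated in 50:50 acetone/water plus 0.5% Tween 20. Plants then grew at 24/16 °C day/night with 14 h light and 65% humidity before evaluation after 13 days.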

Lolium perenne (LOLPE) [6] = assay: Post-emergence herbicidal activity, Lolium perenne; set-up: key: 5=total damage to plant; 0=no damage to plant; details: 1000 g/ha, evaluated after 13 days; for LOLPE damage score (0-5): Test 2b
In short: as §2

Zea Mays (ZEAMX) [7] = assay: Post-emergence herbicidal activity, Zea Mays; set-up: key: 5=total damage to plant; 0=no damage to plant; details: 1000 g/ha, evaluated after 13 days, Test 2b
Experimental: as §1

Lolium perenne (LOLPE) [8] = assay: Pre-emergence herbicidal activity, Lolium perenne; set-up: key: 5=total damage to plant; 0=no damage to plant; details: 1000 g/ha, evaluated after 13 days; for LOLPE damage score (0-5): Test 1b
In short: as §4

Zea Mays (ZEAMX) [9] = assay: Pre-emergence herbicidal activity, Zea Mays; set-up: key: 5=total damage to plant; 0=no damage to plant; details: 1000 g/ha, evaluated after 13 days, Test 1b
Experimental: as §3

[10] = tested on: Echinochloa crus-galli (ECHCG); assay: Post-emergence herbicidal activity, Echinochloa crus-galli; details: 1000 g/ha, evaluated after 13 days; for ECHCG damage score (0-5): Test 2b
In short: as §2

Setaria faberi (SETFA) [11] = assay: Pre-emergence herbicidal activity, Setaria faberi; set-up: key: 5=total damage to plant; 0=no damage to plant; details: 1000 g/ha, evaluated after 13 days; for SETFA damage score (0-5): Test 1b
In short: as §4

[12] = tested on: Abutilon theophrasti (ABUTH); assay: Pre-emergence herbicidal activity, Abutilon theophrasti; set-up: key: 5=total damage to plant; 0=no damage to plant; details: 1000 g/ha, evaluated after 13 days, Test 1b
Experimental: as §3

[13] = tested on: Triticum aestivium (TRZAW); assay: Pre-emergence herbicidal activity, Triticum aestivium; set-up: key: 5=total damage to plant; 0=no damage to plant; details: 1000 g/ha, evaluated after 13 days
In short: as §4

[14] = tested on: Triticum aestivium (TRZAW); assay: Post-emergence herbicidal activity, Triticum aestivium; set-up: key: 5=total damage to plant; 0=no damage to plant; details: 1000 g/ha, evaluated after 13 days
In short: as §2

[15] = tested on: Alopecurus myosuroides (ALOMY); assay: Post-emergence herbicidal activity, Alopecurus myosuroides; set-up: key: 5=total damage to plant; 0=no damage to plant; details: 1000 g/ha, evaluated after 13 days
In short: as §2

Avena fatua (AVEFA) [16] = assay: Pre-emergence herbicidal activity, Avena fatua; set-up: key: 5=total damage to plant; 0=no damage to plant; details: 1000 g/ha, evaluated after 13 days
In short: as §4

Avena fatua (AVEFA) [17] = assay: Post-emergence herbicidal activity, Avena fatua; details: 1000 g/ha, evaluated after 13 days
In short: as §2

[18] = tested on: Alopecurus myosuroides (ALOMY); assay: Pre-emergence herbicidal activity, Alopecurus myosuroides; set-up: key: 5=total damage to plant; 0=no damage to plant; details: 1000 g/ha, evaluated after 13 days
In short: as §4

Structure (SMILES)	AMARE damage score (0-5) [1]	SETFA damage score (0-5) (Setaria faberi (SETFA) [2])	ABUTH damage score (0-5) [3]	AMARE damage score (0-5) [4]	ECHCG damage score (0-5) [5]	LOLPE damage score (0-5) (Lolium perenne (LOLPE) [6])	ZEAMX damage score (0-5) (Zea Mays (ZEAMX) [7])	LOLPE damage score (0-5) (Lolium perenne (LOLPE) [8])	ZEAMX damage score (0-5) (Zea Mays (ZEAMX) [9])	ECHCG damage score (0-5) [10]	SETFA damage score (0-5) (Setaria faberi (SETFA) [11])	ABUTH damage score (0-5) [12]	also measured
Cc1nc(-c2cncc(OC(F)F)c2)ccc1NC(=O)OC(C)(C)C [Compound B13]	1	5	0	0	2	2	5	1	2	3	3	0	–
CCN(C(=O)OC(C)(C)C)c1ccc(-c2cncc(F)c2)nc1C(F)(F)F [Compound B14]	0	4	0	0	0	1	4	0	0	2	0	4	–
CCOC(=O)Nc1ccc(-c2cncc(F)c2)nc1C(F)(F)F [Compound B15, ethyl N-[6-(5-fluoro-3-pyridyl)-2-(trifluoromethyl)-3-pyridyl]carbamate]	1	4	0	0	1	2	5	0	4	3	4	0	–
CC(C)OC(=O)Nc1ccc(-c2cncc(F)c2)nc1C(F)(F)F [Compound B16, isopropyl N-[6-(5-fluoro-3-pyridyl)-2-(trifluoromethyl)-3-pyridyl]carbamate]	0	5	0	0	3	3	5	1	5	4	4	0	–
CN(C(=O)OC(C)(C)C)c1ccc(-c2cncc(C(F)(F)F)c2)nc1C(F)(F)F [Compound B17]	0	1	0	0	0	0	1	0	0	1	0	0	–
Cc1cncc(-c2ccc(N(C)C(=O)OC(C)(C)C)c(C(F)(F)F)n2)c1 [Compound B18]	0	3	0	1	0	1	2	0	0	2	1	1	–
CN1COCN(c2ccc(-c3cncc(F)c3)nc2C(F)(F)F)C1=O [Compound B121, 3-[6-(5-fluoro-3-pyridyl)-2-(trifluoromethyl)-3-pyridyl]-5-methyl-1,3,5-oxadiazinan-4-one]	–	–	–	–	–	–	–	–	–	–	–	–	Control of TRAZW after pre-emergence application (score 0-5) [13]: 0; Control of SETFA after post-emergence application (score 0-5) (Setaria faberi (SETFA) [2]): 5; Control of TRAZW after post-emergence application (score 0-5) [14]: 0; Control of ALOMY after post-emergence application (score 0-5) [15]: 0; Control of ECHCG after pre-emergence application (score 0-5) [5]: 2; Control of LOLPE after post-emergence application (score 0-5) (Lolium perenne (LOLPE) [6]): 2; Control of LOLPE after pre-emergence application (score 0-5) (Lolium perenne (LOLPE) [8]): 0; Control of AVEFA after pre-emergence application (score 0-5) (Avena fatua (AVEFA) [16]): 0; Control of ECHCG after post-emergence application (score 0-5) [10]: 3; Control of AVEFA after post-emergence application (score 0-5) (Avena fatua (AVEFA) [17]): 3; Control of SETFA after pre-emergence application (score 0-5) (Setaria faberi (SETFA) [11]): 4; Control of ALOMY after pre-emergence application (score 0-5) [18]: 0
C=CCN(C(=O)N(C)C)c1ccc(-c2cncc(F)c2)nc1C(F)(F)F [Compound B123]	–	–	–	–	–	–	–	–	–	–	–	–	Control of TRAZW after pre-emergence application (score 0-5) [13]: 0; Control of SETFA after post-emergence application (score 0-5) (Setaria faberi (SETFA) [2]): 5; Control of TRAZW after post-emergence application (score 0-5) [14]: 1; Control of ALOMY after post-emergence application (score 0-5) [15]: 2; Control of ECHCG after pre-emergence application (score 0-5) [5]: 3; Control of LOLPE after post-emergence application (score 0-5) (Lolium perenne (LOLPE) [6]): 1; Control of LOLPE after pre-emergence application (score 0-5) (Lolium perenne (LOLPE) [8]): 1; Control of AVEFA after pre-emergence application (score 0-5) (Avena fatua (AVEFA) [16]): 1; Control of ECHCG after post-emergence application (score 0-5) [10]: 3; Control of AVEFA after post-emergence application (score 0-5) (Avena fatua (AVEFA) [17]): 2; Control of SETFA after pre-emergence application (score 0-5) (Setaria faberi (SETFA) [11]): 5; Control of ALOMY after pre-emergence application (score 0-5) [18]: 0

— patent US20210127673A1, “HERBICIDES” (SYNGENTA PARTICIPATIONS AG, priority 2016, published 2021)
